# Measurements from patent publication US20140023611A1 (priority 2010, published 2014).
# How the values were obtained:
# rat NaP2b (SLC34A2) = molecular target: T1, rat NaP2b (SLC34A2) (Rattus norvegicus, UniProt Q9JJ09); assay: Inhibition of NaP2b-mediated Pi (33P) uptake in transfected HEK293 cells, rat NaP2b; format: cell-based; conditions: 33P Pi uptake, 0.1 mM phosphate, value given as pIC50 range
# T1 construct: host or cells: HEK293
# T1 sequence (Q9JJ09 1-695): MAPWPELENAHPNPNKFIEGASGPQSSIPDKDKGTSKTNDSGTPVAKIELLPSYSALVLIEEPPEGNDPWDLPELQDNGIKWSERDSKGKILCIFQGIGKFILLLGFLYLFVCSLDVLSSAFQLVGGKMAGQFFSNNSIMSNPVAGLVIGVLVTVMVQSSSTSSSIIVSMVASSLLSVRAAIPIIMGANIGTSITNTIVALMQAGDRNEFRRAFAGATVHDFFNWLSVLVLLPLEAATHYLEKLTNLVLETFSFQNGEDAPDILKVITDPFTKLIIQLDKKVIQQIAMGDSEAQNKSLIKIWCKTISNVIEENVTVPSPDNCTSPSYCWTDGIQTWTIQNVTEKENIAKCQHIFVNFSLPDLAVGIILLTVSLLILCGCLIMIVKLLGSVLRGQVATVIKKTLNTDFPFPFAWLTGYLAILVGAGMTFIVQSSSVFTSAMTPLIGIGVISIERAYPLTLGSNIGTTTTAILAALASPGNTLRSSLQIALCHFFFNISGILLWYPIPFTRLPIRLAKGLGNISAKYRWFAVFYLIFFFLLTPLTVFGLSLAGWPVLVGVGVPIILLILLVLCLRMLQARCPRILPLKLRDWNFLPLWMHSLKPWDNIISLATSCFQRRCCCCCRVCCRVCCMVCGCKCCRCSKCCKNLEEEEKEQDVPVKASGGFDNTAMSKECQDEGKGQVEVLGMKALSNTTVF
# Summary of the method: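 HEK293 cells were transiently transfected with NaP2b cDNA using Lipofectamine and grown near confluence. Compounds were tested at twelve concentrations from 0.1 nM to 30 uM in duplicate, and 33P-phosphate uptake was counted by scintillation after lysis. Results are expressed as pIC50.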
# human NaP2b (SLC34A2) = molecular target: T2, human NaP2b (SLC34A2) (Homo sapiens, UniProt O95436); assay: Inhibition of NaP2b-mediated Pi (33P) uptake in transfected HEK293 cells, human NaP2b; format: cell-based; conditions: for IC50: read-out: pIC50 range for human NaP2b (converted)
# T2 construct: host or cells: HEK293
# T2 sequence (O95436 1-690): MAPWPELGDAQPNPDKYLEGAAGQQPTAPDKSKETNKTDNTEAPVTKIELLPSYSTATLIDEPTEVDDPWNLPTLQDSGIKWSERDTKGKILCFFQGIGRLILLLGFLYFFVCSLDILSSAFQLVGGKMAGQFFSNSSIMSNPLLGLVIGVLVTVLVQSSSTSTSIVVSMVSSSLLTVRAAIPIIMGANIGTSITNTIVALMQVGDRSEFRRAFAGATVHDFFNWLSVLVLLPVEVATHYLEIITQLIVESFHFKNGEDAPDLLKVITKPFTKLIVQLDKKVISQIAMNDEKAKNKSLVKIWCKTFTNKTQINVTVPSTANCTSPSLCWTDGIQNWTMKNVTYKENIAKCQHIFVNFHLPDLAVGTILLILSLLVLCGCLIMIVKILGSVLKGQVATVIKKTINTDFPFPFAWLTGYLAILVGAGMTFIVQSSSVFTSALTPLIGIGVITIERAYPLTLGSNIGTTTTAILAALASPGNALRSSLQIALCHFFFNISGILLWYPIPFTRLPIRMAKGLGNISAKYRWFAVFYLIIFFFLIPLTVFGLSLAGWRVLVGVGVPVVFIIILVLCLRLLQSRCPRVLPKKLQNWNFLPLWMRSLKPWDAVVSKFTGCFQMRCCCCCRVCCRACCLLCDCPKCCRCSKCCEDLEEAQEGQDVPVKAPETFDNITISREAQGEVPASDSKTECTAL
# Summary of the method: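 HEK293 cells transiently transfected with human NaP2b (Thr inserted after residue 37, N39D), endogenous PiT transport pharmacologically silenced. Sodium or choline buffer, pH 7.4, with 100 uM KH2PO4, 33P orthophosphate and compound (0.1 nM–30 uM, twelve concentrations, duplicate). 3-30 min at room temperature, scintillation counting, pIC50 derived.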
# [1] = Stability of compounds in simulated gastric fluid (SGF); format: in vitro ADME; conditions: simulated gastric fluid (3 mg/mL pepsin), incubation time 6 hr, relative to t=0
# Summary of the method: (§1)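 Compounds at […] were incubated 3 or 6 hr in USP simulated gastric fluid with 3 mg/mL pepsin or simulated intestinal fluid with 3 mg/mL pancreatin. Remaining compound was quantified by HPLC-UV or HPLC-MS peak area % and reported as percent of the t=0 level in the same medium.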
# [2] = Stability of compounds in simulated intestinal fluid (SIF); format: in vitro ADME; conditions: simulated intestinal fluid (3 mg/mL pancreatin), incubation time 6 hr, relative to t=0
# Summary of the method: as §1
# [3] = Determination of compound Cmax and AUC after oral gavage (plasma LC-MS/MS); format: in vivo, Sprague-Dawley rats; conditions: Sprague-Dawley, rat, plasma, po, Structure (I) examples, Table 15, actual oral dose 3-15 mg/kg, plasma 0.5-4 h
# Summary of the method: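 Sprague-Dawley rats dosed by oral gavage at nominal 2.5 or 10 mg/kg; blood drawn at 0.5, 1, 2 and 4 h into K2EDTA. Plasma protein-precipitated with acetonitrile plus internal standard and analysed by LC-MS/MS against a plasma standard curve to derive Cmax and AUC.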
Compound,IC50 (rat NaP2b (SLC34A2)),IC50 (human NaP2b (SLC34A2)),"% remaining, SGF [1]","% remaining, SIF [2]",AUC [3],Cmax [3],pIC50 range for rat Nap2b (rat NaP2b (SLC34A2)),"pIC50 range for human NaP2b (human NaP2b (SLC34A2); 33P Pi uptake, transfected HEK293 cells, 0.1 mM phosphate, value given as pIC50 range)"
"CCN(CC)c1ccc(NC(=O)c2cccc(CSCCOCCOCCOCCOCCC(=O)NC(CO)(CO)CO)c2)c(-c2cc(C(=O)N[C@H]3CCCc4ccccc43)ccn2)c1 [Example 158, (S)-2-(5-(diethylamino)-2-(3-(20-hydroxy-19,19-bis(hydroxymethyl)-17-oxo-5,8,11,14-tetraoxa-2-thia-18-azaicosyl)benzamido)phenyl)-N-(1,2,3,4-tetrahydronaphthalen-1-yl)isonicotinamide]",< 1 µM,< 1 µM,>80%,20-40%,< 10 ng·h/mL,< 10 ng/mL,–,–
"COCCOCCOCCOCCOCCOCCOCCOCCOCc1cccc(C(=O)Nc2ccc(OC3CCC3)cc2-c2cc(C(=O)NCc3cccc(C(F)(F)F)c3)ccn2)c1 [Example 202, 2-(2-(3-(2,5,8,11,14,17,20,23,26-nonaoxaheptacosyl)benzamido)-5-cyclobutoxyphenyl)-N-(3-(trifluoromethyl)benzyl)isonicotinamide]",1 to 7.94 µM,< 1 µM,>80%,>80%,–,–,–,–
CCCN(CCC)c1ccc(NC(=O)c2cccc(C(=O)N(C)CCOCCOCCOCCC(=O)O)c2)c(-c2cc(C(=O)NCc3cccc(C(F)(F)F)c3)ccn2)c1 [Example 117],1 to 7.94 µM,1 to 7.94 µM,>80%,>80%,–,–,–,–
"CCN(CC)c1ccc(NC(=O)c2cccc(COCCOCCOCCOCCOCCOCCOC(=O)N3CCC(CCOCCO)CC3)c2)c(-c2cc(C(=O)NCc3cccc(C(F)(F)F)c3)ccn2)c1 [Example 171, 1-(3-(4-(diethylamino)-2-(4-(3-(trifluoromethyl)benzylcarbamoyl)pyridin-2-yl)phenylcarbamoyl)phenyl)-2,5,8,11,14,17-hexaoxanonadecan-19-yl 4-(2-(2-hydroxyethoxy)ethyl)piperidine-1-carboxylate]",1 to 7.94 µM,< 1 µM,>80%,>80%,–,–,–,–
"COCCOCCOCCOCCOCCOCCOCCOCCOCc1cccc(C(=O)Nc2ccc(OC3CCC3)cc2-c2cc(C(=O)N[C@H]3CCCc4ccccc43)ccn2)c1 [Example 205, (S)-2-(2-(3-(2,5,8,11,14,17,20,23,26-nonaoxaheptacosyl)benzamido)-5-cyclobutoxyphenyl)-N-(1,2,3,4-tetrahydronaphthalen-1-yl)isonicotinamide]",< 1 µM,< 1 µM,>80%,>80%,–,–,–,–
"CCN(CC)c1ccc(NC(=O)c2cccc(COCCOCCOCCOCCOCCOCCOC(=O)NCCN3CCOCC3)c2)c(-c2cc(C(=O)NCc3cccc(C(F)(F)F)c3)ccn2)c1 [Example 169, 1-(3-(4-(diethylamino)-2-(4-(3-(trifluoromethyl)benzylcarbamoyl)pyridin-2-yl)phenylcarbamoyl)phenyl)-2,5,8,11,14,17-hexaoxanonadecan-19-yl 2-morpholinoethylcarbamate]",< 1 µM,< 1 µM,>80%,60-80%,–,–,–,–
"CCN(CC)c1ccc(NC(=O)c2cccc(COCCOCCOCCOCCOCCOCCOC(=O)N(CCO)CCO)c2)c(-c2cc(C(=O)NCc3cccc(C(F)(F)F)c3)ccn2)c1 [Example 172, 1-(3-(4-(diethylamino)-2-(4-(3-(trifluoromethyl)benzylcarbamoyl)pyridin-2-yl)phenylcarbamoyl)phenyl)-2,5,8,11,14,17-hexaoxanonadecan-19-yl bis(2-hydroxyethyl)carbamate]",1 to 7.94 µM,< 1 µM,>80%,>80%,–,–,–,–
"CCN(CC)c1ccc(NC(=O)c2cccc(COCCOCCOCCOCCOCCOCCOC(=O)N(C)CCN3CCOCC3)c2)c(-c2cc(C(=O)NCc3cccc(C(F)(F)F)c3)ccn2)c1 [Example 170, 1-(3-(4-(diethylamino)-2-(4-(3-(trifluoromethyl)benzylcarbamoyl)pyridin-2-yl)phenylcarbamoyl)phenyl)-2,5,8,11,14,17-hexaoxanonadecan-19-yl methyl(2-morpholinoethyl)carbamate]",1 to 7.94 µM,< 1 µM,>80%,60-80%,–,–,–,–
"1-(3-(4-(diethylamino)-2-(4-(3-(trifluoromethyl)benzylcarbamoyl)pyridin-2-yl)phenylcarbamoyl)phenyl)-2,5,8,11,14,17-hexaoxanonadecan-19-yl 2,5,8,11,14,17,20-heptaoxadocosan-22-ylcarbamate [Example 174]",–,–,>80%,>80%,–,–,5.1-6.0,>6.0

# Now from value to compound:
IC50 (rat NaP2b (SLC34A2)),IC50 (human NaP2b (SLC34A2)),"% remaining, SGF [1]","% remaining, SIF [2]",AUC [3],Cmax [3],pIC50 range for rat Nap2b (rat NaP2b (SLC34A2)),"pIC50 range for human NaP2b (human NaP2b (SLC34A2); 33P Pi uptake, transfected HEK293 cells, 0.1 mM phosphate, value given as pIC50 range)",Compound
< 1 µM,< 1 µM,>80%,20-40%,< 10 ng·h/mL,< 10 ng/mL,–,–,CCN(CC)c1ccc(NC(=O)c2cccc(CCCOCCOCCOCCOCCC(=O)NC(CO)(CO)CO)c2)c(-c2cc(C(=O)NCc3cccc(C(F)(F)F)c3)ccn2)c1 [Example 281]
1 to 7.94 µM,1 to 7.94 µM,>80%,>80%,–,–,–,–,COCCOCCOCCOCCOCCOCCOCCOCCNC(=O)CCOCCOCCOCCOCCCc1cccc(C(=O)Nc2ccc(N3CCCCC3)cc2-c2cc(C(=O)NCc3cccc(C(F)(F)F)c3)ccn2)c1 [Example 275]
1 to 7.94 µM,1 to 7.94 µM,>80%,>80%,–,–,–,–,"CCN(CC)c1ccc(NC(=O)c2cccc(C(=O)N(C)CCN(CCOC)CCOCCOCCOCCOCCOCCOCCOC)c2)c(-c2cc(C(=O)N[C@H]3CCCc4ccccc43)ccn2)c1 [Example 328, (S)—N1-(4-(diethylamino)-2-(4-(1,2,3,4-tetrahydronaphthalen-1-ylcarbamoyl)pyridin-2-yl)phenyl)-N3-(23-(2-methoxyethyl)-2,5,8,11,14,17,20-heptaoxa-23-azapentacosan-25-yl)-N3-methylisophthalamide]"
1 to 7.94 µM,–,>80%,>80%,< 50 ng·h/mL,< 30 ng/mL,–,–,"COCCOCCOCCOCCOCCOCCOCCN(C)CCN(C)C(=O)c1cccc(C(=O)Nc2ccc(N3CCCCC3)cc2-c2cc(C(=O)N[C@H]3CCCc4ccccc43)ccn2)c1 [Example 333, (S)—N^1-Methyl-N^1-(23-methyl-2,5,8,11,14,17,20-heptaoxa-23-azapentacosan-25-yl)-N3-(4-(piperidin-1-yl)-2-(4-(1,2,3,4-tetrahydronaphthalen-1-ylcarbamoyl)pyridin-2-yl)phenyl)isophthalamide]"
